Assay [1] relates to rats. Put plainly: Kaolin - gait score. It counts as in vivo, rat. As to conditions: Compound I-2 p.o. 10 mg/kg; 120 minutes after treatment. The method, then: Kaolin. Induction: In rats, unilateral arthritis was induced by an intra-articular injection of a 10% kaolin suspension into the knee joint of the right hind paw under gas anesthesia (3.5% isoflurane/3 L/min). Gait score: The gait score will be evaluated 3 h 30 min after kaolin administration by:
2: intermittent raising of the paw
(§1) Testing: 120 minutes after treatment. N=4/model/test. Results are expressed for each group as a percentage of activity calculated from the mean value of the vehicle-treated animals and compared to naïve animals, control paw, or cut-off value, depending on the test.

Assay [2] concerns rats. Briefly: TNBS - colorectal distension. It counts as in vivo, rat. The note with it: Compound I-2 p.o. 10 mg/kg; 120 minutes after treatment. On the procedure: TNBS. Surgery: Colonic sensitivity was induced by surgical administration of TNBS seven days before behavioral testing (D−7). Fasted (overnight) animals underwent surgery. Briefly, under anesthesia (Xylazine 10 mg/kg i.p., ketamine 60 mg/kg i.p.), injection of TNBS (50 mg/kg, 1 mL/kg) was performed into the proximal part of the colon (1 cm from the caecum). After surgery, animals returned in their home cages in a regulated environment, and were fed ad libitum until D−1 (animals were fasted 24 hours before distention). Colorectal distension: Seven days (D0) after TNBS injection, colonic sensitivity was assessed on fasted (overnight) animals by measuring the intra-colonic pressure required to induce a behavioral response during colonic distension. To perform distension, a 5-cm balloon was gently inserted into the colon of vigil animals at 10 cm from the anus and the catheter was taped to the base of the tail. […] Pain behavior was characterized by an elevation of the hind part of the animals body and a clearly visible abdominal contraction corresponding to a severe cramp. Two determinations were performed.
as §1

Assay [3] relates to Healthy rats. Briefly: Healthy rats - tail flick test. As to conditions: Compound I-2 p.o. 10 mg/kg; 120 minutes after treatment. Format: in vivo, rat. On the procedure: Tail Flick Test. A radiant heat was applied on the tail. When the rat felt discomfort, it reacted by a sudden tail movement (tail flick) which automatically stopped the stimulation and the timer for the measurement by the animal reaction time or nociceptive reaction latency (period from the beginning of the stimulation until detection of the response of the animal). A cut-off was previously fixed at 10 sec in order to prevent tissue damage.
as §1

Assay [4] relates to rats. Briefly: Bennett model - paw pressure test. Format: in vivo, rat. As to conditions: Compound I-2 p.o. 10 mg/kg; 120 minutes after treatment. On the procedure:
Paw Pressure Test. Static mechanical hyperalgesia is measured. This test requires the application of an increasing pressure on the hind paws between a flat surface and a blunt pointer. To evaluate the analgesic action of a compound, one hind paw of the animal was inflamed by an injection or injured by ligation, while the other hind paw was not injured or inflamed. The apparatus exerted a steadily increasing force on the hind paws. The reaction threshold was determined as the pressure (g) required to elicit paw withdrawal and/or vocalization. The animals were gently handled by the experimenter and static mechanical hyperalgesia were assessed two times for both hind paws.
Bennett Model. Peripheral mononeuropathy was induced by loose ligation of the sciatic nerve in anesthetized rats (Xylazine 10 mg/kg i.p., ketamine 60 mg/kg i.p.) on D−14. Briefly, the common sciatic nerve was exposed at the level of the middle of the thigh by blunt dissection through the biceps femoris. Proximal to the sciatic trifurcation, four ligatures were loosely tied around it with about 1-mm spacing. […]
Testing: 120 minutes after treatment. […] Results are expressed for each group as a percentage of activity calculated from the mean value of the vehicle-treated animals and compared to naïve animals, control paw, or cut-off value, depending on the test.

Assay [5] deals with rats. Put plainly: Acetic acid test - abdominal cramps. It counts as in vivo, rat. The note with it: Compound I-2 p.o. 10 mg/kg; 120 minutes after treatment. On the procedure: Acetic Acid Test. Abdominal contraction was induced by intraperitoneal injection of 0.6% acetic acid solution in rats (10 mL/kg). The number of writhing (a twisting or contorting of the body due to pain) was recorded from the 5th to the 15th minute after injection.
as §1

In assay [6] the test system is male Long Evans rats. Put plainly: Novel Object Recognition (NOR) test, MK-801-induced memory deficit. Format: in vivo, rat.
The test system of assay [7] is R6/2 mice hippocampal slices. Put plainly: Synaptic transmission and plasticity (LTP) in R6/2 mice hippocampal slices. It counts as cell-based, mouse. On the procedure:
Preparation of acute mice hippocampal slices. Experiments were carried out with 11 to 12 week-old R6/2 and WT mice provided by the Jackson Laboratory (USA). Hippocampal slices (350 μm thickness) were cut with a Macllwain tissue chopper in an ice-cold oxygenated sucrose solution (Saccharose 250, Glucose 11, NaHCO3 26, KCl 2, NaH2PO4 1.2, MgCl2 7, and CaCl2 0.5 in mM). The slices were incubated 1 hour at room temperature in ACSF of the following composition: Glucose 11, NaHCO3 25, NaCl 126, KCl 3.5, NaH2PO4 1.2, MgCl2 1.3, and CaCl2 2 in mM. Then, the slices were let to recover for at least 1 h.
Slice perfusion and temperature control. During the experiments, the slices were continuously perfused with the ACSF (bubbled with 95% O2-5% CO2) at the rate of 3 mL/min with a peristaltic pump (MEA chamber volume: ˜1 mL). Complete solution exchange in the MEA chamber was achieved 20 s after the switch of solutions. The perfusion liquid was continuously pre-heated at 37° C. just before reaching the MEA chamber with a heated-perfusion cannula (PH01, MultiChannel Systems, Reutlingen, Germany). The temperature of the MEA chamber was maintained at 37±0.1° C. with a heating element located in the MEA amplifier headstage.
Input/Output (I/O) curve: from 100 to 800 μA, by 100 μA steps. The stimulus intensity was then set to a fixed value of 250 μA for the short- and long-term synaptic plasticity measurements.
Short-term plasticity properties: two pulses with a decreasing inter-stimuli interval (e.g. 300 ms, 200 ms, 100 ms, 50 ms, 25 ms) were applied. Compound application: fEPSP were recorded for 10 minutes in control conditions (to verify the baseline steadiness) followed by a 15-minute exposure to the compound (or 25 minutes in the presence of vehicle only for control slices). A second I/O protocol and paired-pulse protocol were applied, as described previously, in the continuous presence of the compound.
Long-Term Potentiation (LTP): Following a 10-minute control period (in the presence of the compound or vehicle for control slices), LTP was induced by a 10×TBS. Potentiation of synaptic transmission was then monitored for an additional 60-minute period (in the continuous presence of the compound or vehicle for control slices).

The mark [8] stands for this setting: I-2 0.1 mg/kg, compared to Vehicle/MK-801 group.
Setting [9] is: 855 nM, R6/2 hippocampal slices.

Results on two compounds are retold here after patent US11690828B2, “Treatment of CNS diseases with sGC stimulators” (Cyclerion Therapeutics, Inc., priority 2016, dated 2023).

Molecules are shown by their SMILES.

`Fc1ccccc1Cn1nc(-c2nc(C(F)(F)F)n[nH]2)c2cccnc21` [Compound I-2]: in assay [1], the “% of activity vs. vehicle, kaolin gait score” value came out at 88%. Also, the “% of activity vs. vehicle, TNBS colorectal distension” value in assay [2] amounted to 43%. The “% of activity vs. vehicle, healthy rats tail flick test” value in assay [3] was 15%. Also, the “% of activity vs. vehicle, Bennett model paw pressure test” value in assay [4] was 65%. Also, the “% of activity vs. vehicle, acetic acid test abdominal cramps” value in assay [5] is recorded as 59%. Besides, the “Recognition Index, Mean (0 to 3 minute time bin)” value in assay [6] (I-2 0.1 mg/kg oral + MK-801 0.1 mg/kg IP) is given as 68.21%; in assay [6] (I-2 1 mg/kg oral + MK-801 0.1 mg/kg IP), 63.98%; in assay [6] (I-2 10 mg/kg oral + MK-801 0.1 mg/kg IP), 61.76%. In assay [6] (setting [8]), the “Reversal of MK-801-induced memory deficits, 0-3 minute time range” value is listed as “significantly reversed”. Moreover, the “Reversal of MK-801-induced memory deficits, 0-5 minute time range” value in assay [6] (setting [8]) is “significantly reversed”.

In the case of `FC(F)(F)c1n[nH]c(-c2nc(Cc3cncnc3)c3ccccn23)n1` [Compound I-5], the “Potentiation in R6/2 slices compared to R6/2 control slices” value in assay [7] (855 nM) is recorded as “significantly increased”. For the same compound, the “fEPSP amplitude (basal synaptic transmission)” value in assay [7] (855 nM for 15 minutes, R6/2 hippocampal slices) is recorded as “did not modify”. Besides, in assay [7] (setting [9]), the I/O characteristics entry is “significantly higher” and the Paired-pulse properties entry is on record as “significantly increased”. Further, the “LTP: fEPSP increase at endpoint after HFS” value in assay [7] (855 nM, R6/2 hippocampal slices, WT control 36±3%, R6/2 control 15±2%) is given as 40±6%.
